Legend:
[1] = target: eIF-2-alpha kinase GCN2 (Homo sapiens, UniProt Q9P2K8); assay: Biochemical Assay for GCN2
Description: Activity of GCN2 kinase was determined using a TR-FRET kinase activity assay (e.g. Riddle et al. Analytical Biochemistry (2006) 356(1) 108-116). Assays were conducted in 384-well plates (13 μL assay volume) using 2 nM GCN2 (Carna Biosciences), 130 nM GFP-EIf2α (Invitrogen), 0.2 mg/mL E. coli tRNA (sigma) and 1 mM ATP in kinase buffer (Invitrogen). Inhibition of GCN2 was measured by adding serial diluted test compound (final assay concentration of 0.5% DMSO) followed by a 3-hour incubation. Tb-peIF2α (pSer52) antibody (Invitrogen) (2 nM final assay concentration) in kinase buffer containing ETDA (final assay concentration of 20 mM) was added. After a 60 min incubation at room temperature, TR-FRET was monitored using an excitation wavelength of 340 nm and emission wavelengths of 490 nm and 520 nm. The emission ratio (520/490) at each compound concentration of was converted to percent inhibition using controls (i.e. reaction with no test compound and reaction with a known inhibitor) and IC50 values were calculated by fitting a four-parameter sigmoidal curve to the data using Prism (GraphPad software).

[2] = target: T1, Eukaryotic translation initiation factor 2-alpha kinase 3 [563-1115] (Homo sapiens, UniProt Q9NZJ5); assay: Biochemical Assay for PERK
T1 construct: 563-1115
T1 sequence (Q9NZJ5 whole entry): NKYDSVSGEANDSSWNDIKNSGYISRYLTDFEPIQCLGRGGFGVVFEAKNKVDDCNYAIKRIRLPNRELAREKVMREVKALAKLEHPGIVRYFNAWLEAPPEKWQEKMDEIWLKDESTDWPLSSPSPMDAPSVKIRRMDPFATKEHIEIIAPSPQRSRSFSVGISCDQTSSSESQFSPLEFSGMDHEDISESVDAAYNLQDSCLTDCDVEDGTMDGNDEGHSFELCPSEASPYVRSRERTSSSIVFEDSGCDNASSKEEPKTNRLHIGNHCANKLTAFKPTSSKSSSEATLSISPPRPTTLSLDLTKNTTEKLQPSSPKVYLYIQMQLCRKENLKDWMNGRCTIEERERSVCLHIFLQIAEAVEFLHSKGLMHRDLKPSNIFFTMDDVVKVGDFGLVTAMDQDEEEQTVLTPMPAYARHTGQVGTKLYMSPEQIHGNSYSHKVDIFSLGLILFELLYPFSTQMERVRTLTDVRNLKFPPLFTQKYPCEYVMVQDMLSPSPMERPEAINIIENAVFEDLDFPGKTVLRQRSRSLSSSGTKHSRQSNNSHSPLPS
Description: Activity of PERK kinase was determined spectroscopically using a coupled pyruvate kinase/lactate dehydrogenase assay that continuously monitors the ATP hydrolysis-dependent oxidation of NADH (e.g., Schindler et al. Science (2000) 289: 1938-1942). Assays were conducted in 384-well plates (100 μL final volume) using 10 nM PERK (from Beryllium), 0.25 mg/mL Myelin Basic Protein substrate, 1.5 units pyruvate kinase, 2.1 units lactate dehydrogenase, 1 mM phosphoenol pyruvate, 0.28 mM NADH and 1 mM ATP in assay buffer (100 mM Tris, pH 7.5, 15 mM MgCl2, 0.5 mM DTT, 0.004% (w/v) BSA, and 0.004% Triton X-100). Inhibition of PERK was measured by adding serial diluted test compound (final assay concentration of 1% DMSO). A decrease in absorption at 340 nm was monitored continuously for 6 hours at 30° C. on a multi-mode microplate reader (BioTek). The reaction rate was calculated using the 2-3 h time frame. The reaction rate at each concentration of compound was converted to percent inhibition using controls (i.e. reaction with no test compound and reaction with a known inhibitor) and IC50 values were calculated using software routines in Prism (GraphPad software).

eIF-2-alpha kinase GCN2, sequence (Q9P2K8 whole entry): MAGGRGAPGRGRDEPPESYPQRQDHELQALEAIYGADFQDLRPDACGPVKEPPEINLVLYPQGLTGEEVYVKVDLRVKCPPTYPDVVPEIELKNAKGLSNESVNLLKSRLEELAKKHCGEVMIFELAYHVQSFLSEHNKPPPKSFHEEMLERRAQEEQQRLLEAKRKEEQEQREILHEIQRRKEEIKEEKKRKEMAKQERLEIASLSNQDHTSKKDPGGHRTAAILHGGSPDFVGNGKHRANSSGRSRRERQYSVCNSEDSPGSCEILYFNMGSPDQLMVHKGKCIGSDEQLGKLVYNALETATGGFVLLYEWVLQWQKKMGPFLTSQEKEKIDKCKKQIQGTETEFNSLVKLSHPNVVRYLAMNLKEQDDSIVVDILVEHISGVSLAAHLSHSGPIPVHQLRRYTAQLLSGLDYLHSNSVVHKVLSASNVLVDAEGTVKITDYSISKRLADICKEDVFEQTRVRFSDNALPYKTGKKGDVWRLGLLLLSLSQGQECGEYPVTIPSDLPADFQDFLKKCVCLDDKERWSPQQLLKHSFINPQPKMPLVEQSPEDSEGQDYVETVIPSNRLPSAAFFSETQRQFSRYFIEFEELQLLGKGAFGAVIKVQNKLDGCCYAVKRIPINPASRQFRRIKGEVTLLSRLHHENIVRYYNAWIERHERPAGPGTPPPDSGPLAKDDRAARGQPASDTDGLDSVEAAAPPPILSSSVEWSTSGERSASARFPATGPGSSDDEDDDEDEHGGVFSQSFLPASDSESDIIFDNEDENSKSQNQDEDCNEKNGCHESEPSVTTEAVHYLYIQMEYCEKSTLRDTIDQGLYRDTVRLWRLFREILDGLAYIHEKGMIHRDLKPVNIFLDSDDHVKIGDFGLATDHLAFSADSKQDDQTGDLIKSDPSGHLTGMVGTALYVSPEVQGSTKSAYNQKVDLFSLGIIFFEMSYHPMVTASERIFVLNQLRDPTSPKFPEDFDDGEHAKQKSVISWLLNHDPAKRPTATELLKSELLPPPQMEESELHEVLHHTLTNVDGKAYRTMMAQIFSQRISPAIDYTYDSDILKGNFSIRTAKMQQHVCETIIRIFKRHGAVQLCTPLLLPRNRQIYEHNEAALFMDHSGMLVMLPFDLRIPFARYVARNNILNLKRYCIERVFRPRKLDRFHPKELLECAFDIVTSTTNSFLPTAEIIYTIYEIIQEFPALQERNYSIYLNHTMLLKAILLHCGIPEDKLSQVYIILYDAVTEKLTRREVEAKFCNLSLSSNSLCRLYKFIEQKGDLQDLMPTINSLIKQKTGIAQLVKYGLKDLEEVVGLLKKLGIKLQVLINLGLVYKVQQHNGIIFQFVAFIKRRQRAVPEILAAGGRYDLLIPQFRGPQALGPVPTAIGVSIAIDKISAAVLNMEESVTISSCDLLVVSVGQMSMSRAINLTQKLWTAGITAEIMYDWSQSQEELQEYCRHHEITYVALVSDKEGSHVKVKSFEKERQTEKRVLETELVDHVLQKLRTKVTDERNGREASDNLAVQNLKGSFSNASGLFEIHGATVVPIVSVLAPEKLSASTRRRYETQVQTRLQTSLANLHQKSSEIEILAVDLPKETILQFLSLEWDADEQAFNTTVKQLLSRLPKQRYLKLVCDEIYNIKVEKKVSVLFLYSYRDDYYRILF

SMILES	IC50 [1]	IC50 [2]
Cc1nc2cc(N)ncc2cc1-c1cccc(NS(=O)(=O)c2cc(Cl)cc(CO)c2Cl)c1F [US11912668, Example 174]	< 100 nM	< 100 nM
CNc1cc2nc(N)c(-c3cccc(NS(=O)(=O)c4cc(Cl)cc(CO)c4Cl)c3F)cc2cn1 [US11912668, Example 171]	< 100 nM	< 100 nM
CNc1ncc2cc(-c3cc(F)cc(NS(=O)(=O)c4cc(Cl)cnc4OC)c3)c(C)nc2n1 [US11912668, Example 65]	< 100 nM	

Source: BindingDB's records for patent US11912668 (Deciphera Pharmaceuticals, 2024)
